The numbers were not newly measured in patent US20220288059A1, “NANOENCAPSULATED CANNABIDIOL” (Aphios Corporation, priority 2020, published 2022), which cites them from elsewhere.

Series [1] relates to mice. To be noted: intravenously.
The next series concerns dogs. The conditions noted are these: intravenously.
Series [2] relates to mice.
The test system of a further series is rhesus monkeys. The conditions noted are these: intravenously.
The test system of a further series is rats. To be noted: i.v.

Structures are written as SMILES.

On to `C=C(C)[C@@H]1CCC(C)=C[C@H]1c1c(O)cc(CCCCC)cc1O` [CBD, cannabidiol], for which the LD50 in mice in the series on mice [1] is reported as 50 mg/kg. In addition, the LD50 in dogs with dogs was 254 mg/kg. The “inhibition of cue-induced heroin-seeking behaviors” value in the series on mice [2] is “effectively inhibit cue-induced heroin-seeking behaviors”. The “anti-nociceptive effect, tail-flick test” value in the series on Wistar rats is given as “dose-dependent anti-nociceptive effects”. Moreover, the “LD50 in rhesus monkeys” value in the series with rhesus monkeys is 212 mg/kg. For the same molecule, in the series on rats, the “toxicity relative to Δ9-THC by LD50” value is listed as “less toxic than Δ9-THC”.
